The values that follow come from ChEMBL document CHEMBL1201862, “PubChem BioAssay data set” (2004).

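48-hour exposure; five concentrations; linearly interpolated endpoints. GI50 = concentration required for 50% inhibition of growth.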 Calls of active or inactive are those of the source. Cut-off read from the data, not from the text of the source: active = GI50 up to about 1.1 µM and inactive = higher.

Among the test systems are RXF 631; PC-3; DU-145; Hs-578T; BT-549; MDA-MB-435; T47D; 786-0; MDA-MB-231.
Holding throughout (assay): NCI anticancer screen, dose series, 48 h

On to `CCOCc1cc(=O)c2c(O)cc3c(c2o1)CCC(C)(C)O3`, for which, in the test on RXF 631, the GI50 is > 100 µM (inactive).
As to `COc1cc(S(=O)(=O)Nc2ccc(-c3csc(N4C(=O)C(C)SC4c4cccc(Oc5ccccc5)c4)n3)cc2)ccc1Cl` (stereo not given), the GI50 in the test with PC-3 was 43.9 µM (inactive); in the test on DU-145, 35.3 µM (inactive); in the test on Hs-578T it was 34 µM (inactive); in the test on BT-549 it was 26.7 µM (inactive); in the test on MDA-MB-435, 32.6 µM (inactive); with T47D, 29.6 µM (inactive).
As for `O=[S@@]1Nc2ccc(Br)cc2S1`, the GI50 is > 100 µM (inactive) in the test with 786-0 and 3.3 µM (inactive) with RXF 631.
`Clc1ccc(N/N=C(\c2ccccc2)c2ccccn2)nc1`: the GI50 with PC-3 was 0.0463 µM (active); with DU-145, 0.333 µM (active); in the test with Hs-578T, 0.456 µM (active); in the test with BT-549 it was 1.85 µM (inactive); in the test on MDA-MB-231 it was < 0.0187 µM (active); in the test with 786-0, 0.0367 µM (active). Further, the GI50 is 0.627 µM (active) with MDA-MB-435 and < 0.01 µM (active) in the test on T47D.
In the case of `CCOC(=O)c1nc2ccc(OC)cc2c2c1Cc1ccccc1-2`, the GI50 in the test with RXF 631 was 61.7 µM (inactive).
For `COC(=O)/C=C\n1nc(Br)c(=O)[nH]c1=O`, the GI50 in the test with PC-3, in the test on DU-145, with Hs-578T, in the test on BT-549, with MDA-MB-231 and in the test with MDA-MB-435 was > 100 µM (inactive) in each case. In addition, in the test with T47D, the GI50 is > 100 µM (inactive).
As for `O=c1[nH]cnc2sc(=S)c3c(c12)CCC3`, the GI50 was 37 µM (inactive) in the test with PC-3; 39 µM (inactive) in the test on DU-145; 48.5 µM (inactive) with Hs-578T; 32.6 µM (inactive) with MDA-MB-231; 15.5 µM (inactive) in the test with 786-0; 81.8 µM (inactive) in the test with MDA-MB-435. Besides, in the test on T47D, the GI50 was 19.1 µM (inactive).
`O=S(O)c1cc(Cl)cc(Cl)c1OCc1ccccc1`: the GI50 in the test with RXF 631 is > 100 µM (inactive).
Turning to `OCC1C2C=CC(O2)[C@H]1CO` (stereo not given in full), the GI50 in the test on 786-0 and with RXF 631 was > 100 µM (inactive) throughout.
